Measurements as given in ChEMBL document CHEMBL1133888, “Development and in vitro efficacy of novel MMP2 and MMP9 specific doxorubicin albumin conjugates” (Bioorg Med Chem Lett, 2001).

Assay: Inhibitory effect against murine renal cell carcinoma cell line (RENCA cells) using a BrdU-incorporation assay
Format: functional, cell-based
Details: Mus musculus

IC50: < 0.01 µM
Compound: COc1cccc2c1C(=O)c1c(O)c3c(c(O)c1C2=O)C[C@@](O)(C(=O)CO)C[C@@H]3O[C@H]1C[C@H](N)[C@H](O)[C@H](C)O1 [DOXORUBICIN]
